The values that follow come from patent publication US20020022059A1, “Water treatment process” (priority 1996, published 2002).

For one series, the system named is algae bloom. The series is described as follows: Application of algicide-flocculant treatment against an algae bloom in a South Texas water plant. As to conditions: clarifier.
The conditions of series [1]: pH 7, or more alkaline water.
Text: Since the incoming raw water most often has a pH of 7 or above, this causes the crystals to acquire a coating of copper hydroxide that inhibits dissolution of the blue vitriol crystals into the water.

`O.O.O.O.O.O=S(=O)([O-])[O-].[Cu+2]` [blue vitriol crystals, cupric sulfate pentahydrate]: the “outcome of algae bloom” value with algae bloom is given as “had battled an algae bloom”. In addition, in series [1], the dissolution in water entry was “do not dissolve very well”.
